Three compounds from patent US20200354426A1 (MEDIMMUNE LIMITED, priority 2016, published 2020) can be followed below.

What all share (experiment): cAMP activity assay in assay medium (assay 1)
Common to all, as to assay type: cell-based

Experiment [1] concerns the target T1, Human GIPr (Homo sapiens, UniProt P48546).
T1 construct: expressed in transfected cells
T1 sequence (P48546 22-466): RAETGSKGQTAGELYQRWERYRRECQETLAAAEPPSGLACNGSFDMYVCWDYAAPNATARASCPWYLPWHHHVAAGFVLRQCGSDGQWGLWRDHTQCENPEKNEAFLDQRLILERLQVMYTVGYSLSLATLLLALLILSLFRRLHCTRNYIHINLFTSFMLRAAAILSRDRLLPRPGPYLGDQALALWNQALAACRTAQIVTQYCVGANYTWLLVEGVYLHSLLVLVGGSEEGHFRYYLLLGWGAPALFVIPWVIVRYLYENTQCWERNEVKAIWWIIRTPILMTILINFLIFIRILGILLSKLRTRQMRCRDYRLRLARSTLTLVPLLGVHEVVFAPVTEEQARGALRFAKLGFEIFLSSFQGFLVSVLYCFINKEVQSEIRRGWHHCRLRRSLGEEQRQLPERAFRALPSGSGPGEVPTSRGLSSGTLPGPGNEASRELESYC
The settings on record: assay medium; Table 4; read-out: hGIPR EC50. The source says: (§1) Biological Activity of Peptides in Cell-Based cAMP Activity Assay (Assay 1):
(§2) All sample dilutions were made in duplicate.

Experiment [2] addresses T2, Human GlucR (Homo sapiens, UniProt P47871).
T2 construct: expressed in transfected cells
The settings on record: assay medium; Table 4; read-out: hGlucR EC50.
Description: as §1, §2

Experiment [3] has as its target Human GLP1R (Homo sapiens, UniProt P43220). Further details: expressed in transfected cells. The settings on record: assay medium; Table 4; read-out: hGLP1R EC50.
Description: as §1, §2

SMILES strings stand for the structures. Peptide text beside a SMILES is read from it. * marks the point of attachment. Palmitoyl = CCCCCCCCCCCCCCCC(=O)*

Chain of Human GLP1R (P43220 24-463): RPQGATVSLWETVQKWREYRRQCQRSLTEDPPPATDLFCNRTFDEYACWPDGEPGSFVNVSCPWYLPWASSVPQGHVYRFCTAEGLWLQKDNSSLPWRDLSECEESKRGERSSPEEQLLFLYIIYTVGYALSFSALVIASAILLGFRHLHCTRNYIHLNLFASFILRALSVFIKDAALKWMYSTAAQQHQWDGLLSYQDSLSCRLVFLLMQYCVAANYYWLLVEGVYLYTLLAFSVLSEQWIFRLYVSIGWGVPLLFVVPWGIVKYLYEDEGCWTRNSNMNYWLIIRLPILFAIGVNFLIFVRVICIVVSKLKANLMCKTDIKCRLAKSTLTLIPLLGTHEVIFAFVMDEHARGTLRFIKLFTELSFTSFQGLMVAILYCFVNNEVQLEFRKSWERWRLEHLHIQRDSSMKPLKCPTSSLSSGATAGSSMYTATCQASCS
T2 sequence (P47871 26-477): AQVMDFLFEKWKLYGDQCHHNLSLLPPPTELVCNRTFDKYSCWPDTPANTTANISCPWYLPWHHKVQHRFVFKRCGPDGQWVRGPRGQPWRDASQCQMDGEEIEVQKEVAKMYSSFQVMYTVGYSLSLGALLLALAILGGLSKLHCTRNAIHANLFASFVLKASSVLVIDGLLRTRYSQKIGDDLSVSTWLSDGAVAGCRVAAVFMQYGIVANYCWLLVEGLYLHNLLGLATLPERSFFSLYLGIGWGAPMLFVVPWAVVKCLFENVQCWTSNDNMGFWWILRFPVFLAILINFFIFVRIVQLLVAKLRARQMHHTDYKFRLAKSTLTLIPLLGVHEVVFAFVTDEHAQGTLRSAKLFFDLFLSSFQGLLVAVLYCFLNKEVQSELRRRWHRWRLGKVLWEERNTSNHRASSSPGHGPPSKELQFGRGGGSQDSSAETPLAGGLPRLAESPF

Usually EC50 stands for the concentration needed to bring the measured effect to its halfway point. Regarding `CC(C)C[C@H](NC(=O)[C@H](Cc1ccc(O)cc1)NC(=O)[C@H](CCCCN)NC(=O)[C@H](CO)NC(=O)[C@H](Cc1ccc(O)cc1)NC(=O)[C@H](CC(=O)O)NC(=O)[C@H](CO)NC(=O)[C@@H](NC(=O)[C@H](Cc1ccccc1)NC(=O)[C@@H](NC(=O)CNC(=O)[C@H](CCC(N)=O)NC(=O)[C@H](CO)NC(=O)[C@@H](N)Cc1c[nH]cn1)[C@@H](C)O)[C@@H](C)O)C(=O)N[C@@H](CC(=O)O)C(=O)N[C@@H](CO)C(=O)N[C@@H](CCCNC(=N)N)C(=O)N[C@@H](CCCNC(=N)N)C(=O)N[C@@H](C)C(=O)N[C@@H](CCC(N)=O)C(=O)N[C@@H](CC(=O)O)C(=O)N[C@@H](Cc1ccccc1)C(=O)N[C@H](C(=O)N[C@@H](CCC(N)=O)C(=O)N[C@@H](Cc1c[nH]c2ccccc12)C(=O)N[C@@H](CC(C)C)C(=O)N[C@H](C(=O)N[C@@H](CCCNC(=N)N)C(=O)NCC(=O)NCC(=O)N[C@@H](CO)C(=O)N[C@@H](CO)C(=O)NCC(=O)NCC(=O)N[C@@H](CO)C(=O)N[C@@H](CO)C(N)=O)C(C)C)C(C)C` [g316], the EC50 amounted to 3.65 nM in experiment [1], 0.0106 nM in experiment [2] and 0.0314 nM in experiment [3].
Consider `CCCCCCCCCCCCCCCC(=O)NCCCC[C@H](NC(=O)[C@H](CO)NC(=O)[C@@H]1CCCN1C(=O)[C@@H]1CCCN1C(=O)[C@@H]1CCCN1C(=O)[C@H](C)NC(=O)CNC(=O)[C@H](CO)NC(=O)[C@H](CO)NC(=O)[C@@H]1CCCN1C(=O)CNC(=O)CNC(=O)[C@H](CCCNC(=N)N)NC(=O)[C@@H](NC(=O)[C@H](CC(C)C)NC(=O)[C@H](Cc1c[nH]c2ccccc12)NC(=O)[C@H](CCC(N)=O)NC(=O)[C@@H](NC(=O)[C@H](Cc1ccccc1)NC(=O)[C@H](CC(=O)O)NC(=O)[C@H](CCC(N)=O)NC(=O)[C@H](C)NC(=O)[C@H](CCCNC(=N)N)NC(=O)[C@H](CCCNC(=N)N)NC(=O)[C@H](CO)NC(=O)[C@H](CC(=O)O)NC(=O)[C@H](CC(C)C)NC(=O)[C@H](Cc1ccc(O)cc1)NC(=O)[C@H](CCCCN)NC(=O)[C@H](CO)NC(=O)[C@H](Cc1ccc(O)cc1)NC(=O)[C@H](CC(=O)O)NC(=O)[C@H](CO)NC(=O)[C@@H](NC(=O)[C@H](Cc1ccccc1)NC(=O)[C@@H](NC(=O)CNC(=O)[C@H](CCC(N)=O)NC(=O)[C@H](CO)NC(=O)[C@@H](N)Cc1c[nH]cn1)[C@@H](C)O)[C@@H](C)O)C(C)C)C(C)C)C(N)=O` [g320] (H-HSQGTFTSDYSKYLDSRRAQDFVQWLVRGGPSSGAPPPSK(Palmitoyl)-NH2; N-terminus assumed), for which the EC50 in experiment [1] is 1.01 nM; in experiment [2] it was 0.0032 nM; in experiment [3], 0.00938 nM.
On the same counts, the results for `CCCCCCCCCCCCCCCC(=O)NCCCC[C@H](NC(=O)[C@H](C)NC(=O)[C@@H](NC(=O)[C@H](CC(N)=O)NC(=O)[C@H](CC(N)=O)NC(=O)[C@H](CCCNC(=N)N)NC(=O)[C@H](CC(N)=O)NC(=O)[C@H](CC(N)=O)NC(=O)[C@H](CCCCN)NC(=O)CNC(=O)CNC(=O)[C@H](CCCNC(=N)N)NC(=O)[C@@H](NC(=O)[C@H](CC(C)C)NC(=O)[C@H](Cc1c[nH]c2ccccc12)NC(=O)[C@H](CCC(N)=O)NC(=O)[C@@H](NC(=O)[C@H](Cc1ccccc1)NC(=O)[C@H](CC(=O)O)NC(=O)[C@H](CCC(N)=O)NC(=O)[C@H](C)NC(=O)[C@H](CCCNC(=N)N)NC(=O)[C@H](CCCNC(=N)N)NC(=O)[C@H](CO)NC(=O)[C@H](CC(=O)O)NC(=O)[C@H](CC(C)C)NC(=O)[C@H](Cc1ccc(O)cc1)NC(=O)[C@H](CCCCN)NC(=O)[C@H](CO)NC(=O)[C@H](Cc1ccc(O)cc1)NC(=O)[C@H](CC(=O)O)NC(=O)[C@H](CO)NC(=O)[C@@H](NC(=O)[C@H](Cc1ccccc1)NC(=O)[C@@H](NC(=O)CNC(=O)[C@H](CCC(N)=O)NC(=O)[C@H](CO)NC(=O)[C@@H](N)Cc1c[nH]cn1)[C@@H](C)O)[C@@H](C)O)C(C)C)C(C)C)[C@@H](C)CC)C(N)=O` [g322] (H-HSQGTFTSDYSKYLDSRRAQDFVQWLVRGGKNNRNNIAK(Palmitoyl)-NH2; N-terminus assumed) are 1.72 nM, 0.00355 nM and 0.0106 nM.
